Measurements: patent EP4620957A1, “IMIDAZO[4,5-B]PYRIDIN-7-AMINE COMPOUNDS BINDING AURORA KINASE A AND USES THEREOF” (Eberhard Karls Universität Tübingen, priority 2024, dated 2025)

What was measured:
NMP19-/- = assay: XTT cell viability assay (growth curves / growth inhibition); type: cell-based, murine; details: NMP19-/- cells; at the IC95 concentration of EXAMPLE 3 against NMP53-/- cells; 48h
Procedure: (§1) In brief, cells were seeded in 6-well plates on day 1. On day 2, cells were treated with either EXAMPLE 3 (AURKA Ligand) or with DMSO (control). After 5 days, wells were washed and cells were fixed with 4% PFA and then stained with Crystal Violet solution. Plates were scanned and pictures were saved. (B) Crystal violet colony formation assay of NMP19-/- or NMP53 murine hepatocellular carcinoma cells. In brief, cells were seeded in 6-well plates on day 1. On day 2, cells were treated with MLN8237 (AURKA inhibitor) or with DMSO (control). After 5 days, wells were washed and cells were fixed with 4% PFA and then stained with Crystal Violet solution. Plates were scanned and pictures were saved. (C) AURKA kinase assay with the AURKA ligand EXAMPLE 3. The AURKA kinase assay was performed by Reaction Biology Corp. and it is based on radiometric ATP quantification. Compounds were received as 10 mM stock. […] Afterwards, an XTT cell viability assay was performed, based on the quantification of metabolic activity of alive cells. […] Finally, slides were mounted and analyzed in a fluorescent microscope. Bar graphs represent quantification of abnormal/normal spindles levels of (B) NMP53^-/- and (C) NMP19^-/- mitotic cells at time points after treatment with 15 nM of EXAMPLE 3. […] Subsequently, they were analyzed in a Flow Cytometry device for quantification of the amount of PI in each cell. […]

[1] = tested on: BNL CL.2 (non-transformed murine embryonic liver cell line); assay: as above; type: cell-based; details: BNL CL.2 cells; at the IC95 concentration of EXAMPLE 3 against NMP53-/- cells; 48h
Procedure: as §1

AURKA = target: T1, AURKA (Mus musculus, UniProt P97477); assay: Cellular Thermal Shift Assay (CETSA) in NMP53-/- cells; type: cell-based, murine; details: 43.7- 47.9 °C
T1 construct: endogenous in cells; host or cells: NMP53-/- murine hepatocellular carcinoma cells
T1 sequence (P97477 1-395): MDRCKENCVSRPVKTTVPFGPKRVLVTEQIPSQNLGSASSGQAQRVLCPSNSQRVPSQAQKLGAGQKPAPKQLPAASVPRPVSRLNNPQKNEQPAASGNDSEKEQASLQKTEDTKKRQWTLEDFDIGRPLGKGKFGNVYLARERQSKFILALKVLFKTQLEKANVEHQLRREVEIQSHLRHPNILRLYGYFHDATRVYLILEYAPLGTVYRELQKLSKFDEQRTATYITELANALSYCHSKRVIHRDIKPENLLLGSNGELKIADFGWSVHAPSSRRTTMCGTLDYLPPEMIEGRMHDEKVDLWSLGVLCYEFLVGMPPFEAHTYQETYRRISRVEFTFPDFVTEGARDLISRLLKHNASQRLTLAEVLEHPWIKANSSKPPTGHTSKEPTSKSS

TPX2 = assay: as above; type: cell-based, murine; details: 43.7- 47.9 °C

thermal stabilization of AURKA (SDS-Page of soluble fraction) (AURKA): stabilized
Structure (SMILES): Cn1cc(-c2ccc(CNc3ccnc4[nH]c(CCc5ccco5)nc34)cc2)cn1 [Example 3, 2-(2-(furan-2-yl)ethyl)-N-(4-(1-methyl-1H-pyrazol-4-yl)benzyl)-3H-imidazo[4,5-b]pyridin-7-amine]
growth inhibition in percentage (NMP19-/-): no significant growth inhibition
growth inhibition in percentage [1]: no significant growth inhibition
thermal stabilization of TPX2 (SDS-Page of soluble fraction) (TPX2): stabilized
